Laboratory results from ChEMBL document CHEMBL1137935 (Bioorg Med Chem Lett, 2004).
Calls of active or inactive are those of the source. No cut-off for these calls is given here.

Columns and labels:
[1] = target: T1, Adenosine receptor A1 (Cavia porcellus) (UniProt P47745); experiment: Binding affinity against adenosine A1 receptor using [3H]CCPA in guinea pig DDT membrane; 7.5+/-1.9
T1 sequence (whole entry): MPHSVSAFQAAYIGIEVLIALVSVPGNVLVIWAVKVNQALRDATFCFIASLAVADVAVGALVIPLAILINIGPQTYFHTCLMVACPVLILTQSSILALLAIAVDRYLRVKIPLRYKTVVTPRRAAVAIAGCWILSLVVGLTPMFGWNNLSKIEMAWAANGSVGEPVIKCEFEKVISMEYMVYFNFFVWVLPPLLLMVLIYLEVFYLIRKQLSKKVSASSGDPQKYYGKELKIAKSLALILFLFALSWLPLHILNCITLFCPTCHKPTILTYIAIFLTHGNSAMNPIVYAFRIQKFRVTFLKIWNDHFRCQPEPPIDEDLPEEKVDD

[2] = target: T1, Adenosine receptor A1 (Cavia porcellus); experiment: Binding affinity against adenosine A1 receptor using [3H]CPX in guinea pig DDT membrane; format: cell membranes
[3] = target: T1, Adenosine receptor A1 (Cavia porcellus); experiment: Binding affinity against […] using [35S]GTP-gamma-S, radioligand in guinea pig.; format: functional
[4] = target: T1, Adenosine receptor A1 (Cavia porcellus)
[5] = target: T1, Adenosine receptor A1 (Cavia porcellus); remark: listed apart in the source
[6] = target: T1, Adenosine receptor A1 (Cavia porcellus); experiment: Binding affinity against adenosine A1 receptor using [3H]CPX in guinea pig DDT membrane; 473+/-329
[7] = target: T1, Adenosine receptor A1 (Cavia porcellus); experiment: Binding affinity against adenosine A1 receptor using [3H]CPX in guinea pig DDT membrane; 614+/-78
[8] = target: T1, Adenosine receptor A1 (Cavia porcellus); experiment: Binding affinity against adenosine A1 receptor using [3H]CCPA in guinea pig DDT membrane; 102+/-45
[9] = target: T1, Adenosine receptor A1 (Cavia porcellus); experiment: Binding affinity against adenosine A1 receptor using [3H]CCPA in guinea pig DDT membrane; format: cell membranes
[10] = target: T1, Adenosine receptor A1 (Cavia porcellus); remark: listed apart in the source
[11] = target: T1, Adenosine receptor A1 (Cavia porcellus); remark: listed apart in the source
[12] = target: T1, Adenosine receptor A1 (Cavia porcellus); remark: listed apart in the source
[13] = target: T1, Adenosine receptor A1 (Cavia porcellus); experiment: Binding affinity against adenosine A1 receptor using [3H]CCPA in guinea pig DDT membrane; 971+/-139
[14] = target: T1, Adenosine receptor A1 (Cavia porcellus); experiment: Binding affinity against adenosine A1 receptor using [3H]CPX in guinea pig DDT membrane; 5497+/-180
[15] = target: T1, Adenosine receptor A1 (Cavia porcellus); experiment: Binding affinity against adenosine A1 receptor using [3H]CPX in guinea pig DDT membrane; 913+/-517
[16] = target: T1, Adenosine receptor A1 (Cavia porcellus); experiment: Binding affinity against adenosine A1 receptor using [3H]CPX in guinea pig DDT membrane; 5855+/-1208
[17] = target: T1, Adenosine receptor A1 (Cavia porcellus); experiment: Binding affinity against adenosine A1 receptor using [3H]CCPA in guinea pig DDT membrane; 243+/-107
[18] = target: T1, Adenosine receptor A1 (Cavia porcellus); experiment: Binding affinity against adenosine A1 receptor using [3H]CPX in guinea pig DDT membrane; 503+/-262
[19] = target: T1, Adenosine receptor A1 (Cavia porcellus); remark: listed apart in the source
[20] = target: T1, Adenosine receptor A1 (Cavia porcellus); experiment: Binding affinity against adenosine A1 receptor using [3H]CPX in guinea pig DDT membrane; 1945+/-1316
[21] = target: T1, Adenosine receptor A1 (Cavia porcellus); experiment: Binding affinity against adenosine A1 receptor using [3H]CCPA in guinea pig DDT membrane; 96+/-11
[22] = target: T1, Adenosine receptor A1 (Cavia porcellus); experiment: Binding affinity against adenosine A1 receptor using [3H]CPX in guinea pig DDT membrane; 338+/-98
[23] = target: T1, Adenosine receptor A1 (Cavia porcellus); experiment: Binding affinity against adenosine A1 receptor using [3H]-CCPA in guinea pig DDT membrane; 180+/-23
[24] = target: T1, Adenosine receptor A1 (Cavia porcellus); experiment: Binding affinity against adenosine A1 receptor using [3H]CPX in guinea pig DDT membrane; 1571+/-245
[25] = target: T1, Adenosine receptor A1 (Cavia porcellus); experiment: Binding affinity against adenosine A1 receptor using [3H]CPX in guinea pig DDT membrane; 343+/-137
[26] = target: T1, Adenosine receptor A1 (Cavia porcellus); remark: listed apart in the source
[27] = target: T1, Adenosine receptor A1 (Cavia porcellus); remark: listed apart in the source
[28] = system: Adenosine receptor A1 (Cavia porcellus); experiment: Binding affinity against […] using [35S]GTP-gamma-S, in guinea pig; not active
[29] = target: T1, Adenosine receptor A1 (Cavia porcellus); experiment: Binding affinity against adenosine A1 receptor using [3H]CPX in guinea pig DDT membrane; 6250+/-1767
[30] = target: T1, Adenosine receptor A1 (Cavia porcellus); experiment: Binding affinity against adenosine A1 receptor using [3H]CCPA in guinea pig DDT membrane; 2400+/-16
[31] = target: T1, Adenosine receptor A1 (Cavia porcellus); experiment: Binding affinity against adenosine A1 receptor using [3H]CPX in guinea pig DDT membrane; 400+/-38
[32] = target: T1, Adenosine receptor A1 (Cavia porcellus); experiment: Binding affinity against adenosine A1 receptor using [3H]CPX in guinea pig DDT membrane; 354+/-113
[33] = target: T1, Adenosine receptor A1 (Cavia porcellus); experiment: Binding affinity against adenosine A1 receptor using [3H]CPX in guinea pig DDT membrane; 1143+/-426
[34] = target: T1, Adenosine receptor A1 (Cavia porcellus); experiment: Binding affinity against adenosine A1 receptor using [3H]CCPA in guinea pig DDT membrane; 160+/-41
[35] = target: T1, Adenosine receptor A1 (Cavia porcellus); experiment: Binding affinity against adenosine A1 receptor using [3H]CCPA in guinea pig DDT membrane; 0.93+/-0.92
[36] = target: T1, Adenosine receptor A1 (Cavia porcellus); experiment: Binding affinity against adenosine A1 receptor using [3H]CPX in guinea pig DDT membrane; 166+/-75
[37] = target: T1, Adenosine receptor A1 (Cavia porcellus); experiment: Binding affinity against adenosine A1 receptor using [3H]CPX in guinea pig DDT membrane; 1666+/-556
[38] = target: T1, Adenosine receptor A1 (Cavia porcellus); experiment: Binding affinity against adenosine A1 receptor using [3H]CPX in guinea pig DDT membrane; 158+/-21
[39] = target: T1, Adenosine receptor A1 (Cavia porcellus); experiment: Binding affinity against adenosine A1 receptor using [3H]CCPA in guinea pig DDT membrane; 21+/-0
[40] = target: T1, Adenosine receptor A1 (Cavia porcellus); experiment: Binding affinity against adenosine A1 receptor using [3H]CPX in guinea pig DDT membrane; 604+/-241
[41] = target: T1, Adenosine receptor A1 (Cavia porcellus); experiment: Binding affinity against adenosine A1 receptor using [3H]-CPX in guinea pig DDT membrane; 4191+/-922
[42] = target: T1, Adenosine receptor A1 (Cavia porcellus); remark: listed apart in the source
[43] = target: T1, Adenosine receptor A1 (Cavia porcellus); remark: listed apart in the source
[44] = target: T1, Adenosine receptor A1 (Cavia porcellus); experiment: Binding affinity against adenosine A1 receptor using [3H]CCPA in guinea pig DDT membrane; 2.73+/-0.49

OC1[C@@H](O)C(n2cnc3c(NC4CCOC4)ncnc32)O[C@@H]1COCc1ccccc1 (single isomer, unassigned)
Ki high [1]: 7.5 nM | Ki low [2]: 165 nM | efficacy relative to CPA [3]: 98%

OC[C@H]1O[C@@H](n2cnc3c(N[C@@H]4CCOC4)ncnc32)[C@H](O)C1O (single isomer, unassigned)
Ki low [4]: 543 nM | Ki high [5]: 3.25 nM

OC1[C@@H](O)C(n2cnc3c(NC4CCOC4)ncnc32)O[C@@H]1COc1ccccc1Cl (single isomer, unassigned)
Ki low [6]: 473 nM | efficacy relative to CPA [3]: 62%

Cc1csc(SC[C@H]2OC(n3cnc4c(NC5CCOC5)ncnc43)[C@H](O)C2O)n1 (single isomer, unassigned)
Ki low [2]: > 5000 nM | efficacy relative to CPA [3]: 86%

OC1[C@@H](O)C(n2cnc3c(NC4CCOC4)ncnc32)O[C@@H]1CSc1c(Cl)cccc1Cl (single isomer, unassigned)
Ki low [7]: 614 nM | efficacy relative to CPA [3]: 89% | Ki high [8]: 102 nM

O[C@@H]1[C@@H](CSc2ccccc2F)OC(n2cnc3c(NC4CCCC4)ncnc32)[C@@H]1O (some centres undefined)
Ki high [9]: 33 nM | Ki low [10]: 287 nM | efficacy relative to CPA [3]: 90%

Cc1cccc(Cl)c1SC[C@H]1OC(n2cnc3c(NC4CCOC4)ncnc32)[C@H](O)C1O (single isomer, unassigned)
Ki high [11]: 233 nM | efficacy relative to CPA [3]: 18% | Ki low [12]: 7.29 µM

OC1[C@@H](O)[C@H](n2cnc3c(NC4CCOC4)ncnc32)O[C@@H]1CSc1ccc(F)cc1F (single isomer, unassigned; 19)
Ki high [13]: 971 nM | efficacy relative to CPA [3]: 86% | Ki low [14]: 5.5 µM

OC1[C@@H](O)C(n2cnc3c(NC4CCOC4)ncnc32)O[C@@H]1CSc1ncccn1 (single isomer, unassigned)
efficacy relative to CPA [3]: 89% | Ki low [15]: 913 nM

Cc1cccc(C)c1SC[C@H]1OC(n2cnc3c(NC4CCOC4)ncnc32)[C@H](O)C1O (single isomer, unassigned)
Ki low [16]: 5.86 µM | efficacy relative to CPA [3]: 12% | Ki high [17]: 243 nM

OC1[C@@H](O)[C@H](n2cnc3c(NC4CCOC4)ncnc32)O[C@@H]1CSc1ccc(F)cc1F (single isomer, unassigned; 26)
Ki low [2]: 494 nM | efficacy relative to CPA [3]: 88%

Cc1ccccc1OC[C@H]1OC(n2cnc3c(NC4CCOC4)ncnc32)[C@H](O)C1O (single isomer, unassigned)
efficacy relative to CPA [3]: 61% | Ki low [18]: 503 nM

OC1[C@@H](O)C(n2cnc3c(NC4CCOC4)ncnc32)O[C@@H]1CSc1ccccn1 (single isomer, unassigned)
Ki low [19]: 894 nM | efficacy relative to CPA [3]: 110%

OC1[C@@H](O)C(n2cnc3c(NC4CCOC4)ncnc32)O[C@@H]1CSc1nc2ccc(Cl)cc2o1 (single isomer, unassigned)
Ki low [20]: 1940 nM | efficacy relative to CPA [3]: 99%

OC1[C@@H](O)C(n2cnc3c(NC4CCOC4)ncnc32)O[C@@H]1CSc1ccccc1Cl (single isomer, unassigned)
Ki high [21]: 96 nM | efficacy relative to CPA [3]: 74% | Ki low [22]: 338 nM

OC1[C@@H](O)C(n2cnc3c(NC4CCOC4)ncnc32)O[C@@H]1CSc1cccc(F)c1 (single isomer, unassigned)
efficacy relative to CPA [3]: 84% | Ki high [23]: 180 nM | Ki low [24]: 1570 nM

OC1[C@@H](O)C(n2cnc3c(NC4CCOC4)ncnc32)O[C@@H]1COc1ccc(F)cc1 (single isomer, unassigned)
Ki low [25]: 343 nM | efficacy relative to CPA [3]: 71%

CNC(=O)OC[C@H]1OC(n2cnc3c(NC4CCOC4)ncnc32)[C@H](O)C1O (single isomer, unassigned)
Ki low [26]: 3.61 µM | Ki high [27]: 167 nM

OC1[C@@H](O)C(n2cnc3c(NC4CCOC4)ncnc32)O[C@@H]1CSc1ccccc1C(F)(F)F (single isomer, unassigned)
CPA [28]: inactive | Ki low [29]: 6.25 µM | Ki high [30]: 2400 nM

OC1[C@@H](O)C(n2cnc3c(NC4CCOC4)ncnc32)O[C@@H]1CSc1nc2ccccc2s1 (single isomer, unassigned)
efficacy relative to CPA [3]: 100% | Ki low [31]: 400 nM

COc1ccc2sc(SC[C@H]3OC(n4cnc5c(NC6CCCC6)ncnc54)[C@H](O)[C@@H]3O)nc2c1 (some centres undefined)
Ki low [32]: 354 nM | Ki high [9]: 222 nM | efficacy relative to CPA [3]: 94%

Cc1ccccc1SC[C@H]1OC(n2cnc3c(NC4CCOC4)ncnc32)[C@H](O)C1O (single isomer, unassigned)
Ki low [33]: 1140 nM | Ki high [34]: 160 nM | efficacy relative to CPA [3]: 81%

O[C@@H]1[C@@H](CSc2nccs2)OC(n2cnc3c(NC4CCCC4)ncnc32)[C@@H]1O (some centres undefined)
Ki high [35]: 0.93 nM | efficacy relative to CPA [3]: 105% | Ki low [36]: 166 nM

COc1ccc2nc(SC[C@H]3OC(n4cnc5c(NC6CCCC6)ncnc54)[C@H](O)[C@@H]3O)sc2c1 (some centres undefined)
Ki low [37]: 1670 nM | efficacy relative to CPA [3]: 105%

OC1[C@@H](O)C(n2cnc3c(NC4CCOC4)ncnc32)O[C@@H]1CSc1nccs1 (single isomer, unassigned)
efficacy relative to CPA [3]: 106% | Ki low [38]: 158 nM | Ki high [39]: 21 nM

O[C@@H]1[C@@H](COc2ccccc2F)OC(n2cnc3c(NC4CCCC4)ncnc32)[C@@H]1O (some centres undefined)
Ki low [2]: 4390 nM | CPA [28]: inactive

OC1[C@@H](O)C(n2cnc3c(NC4CCOC4)ncnc32)O[C@@H]1COc1cccc(F)c1 (single isomer, unassigned)
Ki low [40]: 604 nM | efficacy relative to CPA [3]: 70%

Cn1ccnc1SC[C@H]1OC(n2cnc3c(NC4CCOC4)ncnc32)[C@H](O)C1O (single isomer, unassigned)
efficacy relative to CPA [3]: 84% | Ki low [41]: 4.19 µM

O[C@@H]1[C@@H](CSc2nc3ccccc3s2)OC(n2cnc3c(NC4CCCC4)ncnc32)[C@@H]1O (some centres undefined)
efficacy relative to CPA [3]: 95% | Ki low [42]: 1770 nM

OC[C@H]1O[C@@H](n2cnc3c(NC4CCCC4)ncnc32)[C@H](O)[C@@H]1O
Ki high [9]: 0.8 nM | Ki low [43]: 19.5 nM | efficacy relative to CPA [3]: 100%

Cn1ccnc1SC[C@H]1OC(n2cnc3c(NC4CCCC4)ncnc32)[C@H](O)[C@@H]1O (some centres undefined)
Ki low [2]: 1340 nM | efficacy relative to CPA [3]: 112%

Cc1cc(COC[C@H]2OC(n3cnc4c(NC5CCOC5)ncnc43)[C@H](O)C2O)no1 (single isomer, unassigned)
Ki low [2]: 192 nM | efficacy relative to CPA [3]: 84% | Ki high [44]: 2.73 nM
